This note sets out measurements from ChEMBL document CHEMBL5579883, “Discovery of Novel Neo-Clerodane Derivatives as Potent Dual-Functional Antiosteoporosis Agents through Targeting Peroxisome Proliferator-Activated Receptor-γ” (J Med Chem, 2024).

For series [1], the system named is BMDM. The experiment in a line: Cytotoxicity against mouse Bone marrow macrophage at 10 uM measured after 72 hrs by MTT assay. It counts as toxicity, cell-based.
The subject of series [2] is BMDM. The experiment in a line: Inhibition of osteoclastogenesis in C57BL/6J mouse Bone marrow macrophage cells assessed as inhibition of RANKL-stimulated osteoclast formation measured after 6 days by tartrate-resistant acid phosphatase (TRAP) staining assay. Particulars: 144 h.
Series [3] concerns the target T1, Peroxisome proliferator-activated receptor gamma (Homo sapiens, UniProt P37231).
T1 sequence (P37231 whole entry): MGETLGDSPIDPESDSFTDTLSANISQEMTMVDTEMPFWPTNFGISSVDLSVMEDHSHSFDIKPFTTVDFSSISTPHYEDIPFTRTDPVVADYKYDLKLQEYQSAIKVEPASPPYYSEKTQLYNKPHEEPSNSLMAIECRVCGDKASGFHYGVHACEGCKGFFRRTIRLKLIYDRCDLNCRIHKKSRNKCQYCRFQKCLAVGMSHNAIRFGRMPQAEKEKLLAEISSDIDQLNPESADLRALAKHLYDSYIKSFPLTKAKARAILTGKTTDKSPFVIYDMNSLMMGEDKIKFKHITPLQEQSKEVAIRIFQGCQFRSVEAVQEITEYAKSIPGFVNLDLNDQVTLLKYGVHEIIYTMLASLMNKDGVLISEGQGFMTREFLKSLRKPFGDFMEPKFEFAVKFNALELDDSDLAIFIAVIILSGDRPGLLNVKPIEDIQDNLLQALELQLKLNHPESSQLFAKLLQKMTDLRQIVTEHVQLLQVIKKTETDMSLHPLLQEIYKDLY
The series can be described thus: Antagonist activity at PPAR gamma LBD (203 to 476 residues) (unknown origin) expressed in HEK293T cells co-transfected with pCMV-GAL4-PPARgamma-LBD-SV40-Renilla-luciferase assessed as reduction of rosiglitazone induced PPAR-gamma activation incubated for 24 hrs by dural-luciferase reporter assay. It counts as cell-based.

A value given as a limit tells only on which side of the number the result lay.

In the case of `C/C=C(\C)C(=O)O[C@@H]1CC[C@]2(CO2)[C@]2(COC(C)=O)[C@@H](OC(C)=O)C[C@@H](C)[C@](C)(CC(=O)C3=CC(=O)OC3)[C@@H]12`, in the series on BMDM [1], the Activity entry is recorded as “Non-Toxic”. Moreover, the 50% inhibitory concentration (IC50) in the series with BMDM [2] was greater than 10 µM; in series [3], greater than 20 µM.
For the compound `C[C@@H]1C[C@H](O)[C@@]2(COC(=O)c3ccc(N(C)C)cc3)C(=O)CCC[C@@H]2[C@@]1(C)CCC1=CC(=O)OC1`, the Activity entry with BMDM [1] is recorded as “Non-Toxic”. Besides, the half-inhibitory concentration (IC50) in the series with BMDM [2] was found to be 0.31 µM.
Consider `C/C=C(\C)C(=O)O[C@@H]1CC[C@]2(CO2)[C@]2(COC(C)=O)[C@@H](OC(C)=O)C[C@@H](C)[C@](C)(C[C@H](O)C3=CC(=O)OC3)[C@@H]12` [AJUGAMARIN A1], for which, in the series on BMDM [1], the Activity result was “Non-Toxic”.
Regarding `C/C=C(\C)C(=O)O[C@@H](C[C@@]1(C)[C@H](C)C[C@H](OC(C)=O)[C@]2(COC(C)=O)[C@@H]1CCC[C@]2(O)CCl)C1=CC(=O)OC1`, the Activity result in the series on BMDM [1] is recorded as “Non-Toxic”.
On the same count and under the same terms, next, `C[C@@H]1C[C@H](O)[C@@]2(COC(=O)/C=C/c3ccc(F)cc3)C(=O)CCC[C@@H]2[C@@]1(C)CCC1=CC(=O)OC1`: “Non-Toxic”; `C/C=C(\C)C(=O)OC[C@]12C(=O)CCC[C@@H]1[C@@](C)(CCC1=CC(=O)OC1)[C@H](C)C[C@@H]2OC(C)=O`: “Non-Toxic”.
In the case of `C/C=C(\C)C(=O)OC[C@@]12C(=O)C[C@@H](C)[C@](C)(CCC3=CC(=O)OC3)[C@H]1CCC[C@]21CO1`, in the series with BMDM [1], the Activity entry is given as “Non-Toxic”. Moreover, the 50% inhibitory concentration (IC50) with BMDM [2] is 0.83 µM; in series [3], 2.05 µM.
Consider `CC(=O)OC[C@@]12[C@@H](OC(C)=O)C[C@@H](C)[C@](C)(C[C@H](O)C3=CC(=O)OC3)[C@H]1CCC[C@]21CO1` [AJUGALIDE C], for which, in the series with BMDM [1], the Activity result is reported as “Non-Toxic”.
The same measure, in the same setting: next, `COC(=O)[C@@H]1CCC[C@@H]2[C@@](C)(C[C@H](O)C3=CC(=O)OC3)[C@H](C)C[C@H](O)[C@]21C`: “Non-Toxic”; `CC(=O)OC[C@@]12[C@@H](OC(C)=O)C[C@@H](C)[C@](C)(C[C@H](OC(C)=O)C3=CC(=O)OC3)[C@H]1[C@H](OC(C)=O)CC[C@]21CO1` [AJUGAPANTIN A]: “Non-Toxic”.
Consider `C[C@@H]1C[C@H](O)[C@@]2(CO)C(=O)CCC[C@@H]2[C@@]1(C)CCC1=CC(=O)OC1`, for which, in the series on BMDM [1], the Activity result is “Non-Toxic”. Besides, the IC50 was greater than 10 µM with BMDM [2] and greater than 20 µM in series [3].
Take `C/C=C(\C)C(=O)OC[C@]12[C@H]3CCC[C@@]1(O)CO[C@@]2(O)C[C@H](C)[C@@]3(C)CCC1=CC(=O)OC1`: in the series with BMDM [1], the Activity entry was “Non-Toxic”. In addition, the IC50 in the series with BMDM [2] worked out at 1.04 µM; in series [3], 8.18 µM.
`CCC(C)C(=O)O[C@@H]1CC[C@]2(CO2)[C@]2(COC(C)=O)[C@@H](OC(C)=O)C[C@@H](C)[C@](C)(C[C@H](O)C3=CC(=O)OC3)[C@@H]12` (stereo not given in full) [DIHYDROAJUGAMARIN]: in the series on BMDM [1], the Activity result is “Non-Toxic”.
As to `C/C=C(\C)C(=O)O[C@@H](C[C@@]1(C)[C@H](C)C[C@H](OC(C)=O)[C@]2(COC(C)=O)[C@@H]1[C@H](OC(C)=O)CC[C@]21CO1)C1=CC(=O)OC1` [AJUGANIPPONIN A], in the series on BMDM [1], the Activity entry is “Non-Toxic”. Besides, the IC50 in series [3] was 11.6 µM.
As for `CC(=O)O[C@H]1C[C@@H](C)[C@](C)(CCC2=CC(=O)OC2)[C@H]2CCCC(=O)[C@]12CO`, the Activity entry in the series on BMDM [1] was “Non-Toxic”. In addition, the values for the half-maximal inhibitory concentration (IC50) (in the series on BMDM [2]; in series [3]) were greater than 10 µM and greater than 20 µM, respectively.
Taken in the same sequence, the figures for `C/C=C(\C)C(=O)OC[C@@]12[C@@H](OC(C)=O)C[C@@H](C)[C@](C)(CCC3=CC(=O)OC3)[C@H]1CCC[C@]2(O)COC(C)=O` were “Non-Toxic”, 6.12 µM and greater than 20 µM.
Take `C/C=C(\C)C(=O)OC[C@@]12[C@H](CCC[C@]13CO3)[C@@](C)(CCC1=CC(=O)OC1)[C@H](C)C[C@@H]2O`: the Activity entry in the series on BMDM [1] is listed as “Non-Toxic”.
For `C/C=C(\C)C(=O)O[C@@H](C[C@@]1(C)[C@H](C)C[C@H](OC(C)=O)[C@]2(COC(C)=O)[C@@H]1[C@H](OC(=O)/C(C)=C/C)CC[C@]21CO1)C1=CC(=O)OC1` [AJUGATAKASIN A], in the series with BMDM [1], the Activity entry is on record as “Non-Toxic”.
On the same count and under the same terms, next, `C[C@@H]1C[C@H](O)[C@@]2(COC(=O)/C=C/c3ccc(C(F)(F)F)cc3)C(=O)CCC[C@@H]2[C@@]1(C)CCC1=CC(=O)OC1`: “Non-Toxic”; `COC(=O)[C@@H]1CC[C@@H](O)[C@@H]2[C@@](C)(C[C@H](O)C3=CC(=O)OC3)[C@H](C)C[C@H](O)[C@]21C`: “Non-Toxic”.
Same read-out and setting: the entry for `C/C=C(\C)C(=O)O[C@@H]1CC[C@]2(CO2)[C@]2(COC(C)=O)[C@@H](OC(C)=O)C[C@@H](C)[C@](C)(C[C@H](OC(C)=O)C3=CC(=O)OC3)[C@@H]12` [AJUGAMARIN A2] is “Non-Toxic”.
In the case of `O=C(Nc1ccncc1)c1cc([N+](=O)[O-])ccc1Cl`, in the series on BMDM [2], the IC50 is 0.067 µM.
For the compound `C[C@@H]1C[C@H](O)[C@@]2(COC(=O)c3ccc(F)cc3)C(=O)CCC[C@@H]2[C@@]1(C)CCC1=CC(=O)OC1`, the Activity result with BMDM [1] is recorded as “Non-Toxic”.
The same measure, in the same setting: the entry for `C/C=C(\C)C(=O)O[C@@H]1CC[C@]2(CO2)[C@@]2(COC(C)=O)[C@H]1[C@@](C)(C[C@H](OC(C)=O)C1=CC(=O)OC1)[C@H](C)C[C@@H]2O` is “Non-Toxic”.
The same measure, in the same setting: the entry for `C[C@@H]1C[C@H](O)[C@@]23COC[C@@H]2CCC[C@@H]3[C@@]1(C)CCC1=CC(=O)OC1` is “Non-Toxic”; for `C/C=C(\C)C(=O)OC[C@@]12[C@@H](OC(C)=O)C[C@@H](C)[C@](C)(CCC3=CC(=O)OC3)[C@H]1CCC[C@H]2C(=O)O` it is “Non-Toxic”.
On the same count and under the same terms, the entry for `COC(=O)[C@@H]1CCC[C@@H]2[C@@](C)(C[C@@H]3OC(=O)C=C3CO)[C@H](C)C[C@H](O)[C@]21C` is “Non-Toxic”; for `C[C@@H]1C[C@H](O)[C@@]2(COC(=O)c3ccc(C(F)(F)F)cc3)C(=O)CCC[C@@H]2[C@@]1(C)CCC1=CC(=O)OC1` it is “Non-Toxic”; for `C/C=C(\C)C(=O)O[C@@H]1CC[C@](O)(CCl)[C@]2(COC(C)=O)[C@@H](OC(C)=O)C[C@@H](C)[C@](C)(C[C@H](O)C3=CC(=O)OC3)[C@@H]12` [AJUGAMARIN A1 CHLOROHYDRIN] it is “Non-Toxic”.
For `C/C=C(\C)C(=O)O[C@@H]1CC[C@](O)(CCl)[C@]2(COC(C)=O)[C@@H](OC(C)=O)C[C@@H](C)[C@](C)(C/C=C(/C=O)CC(=O)OC)[C@@H]12`, the Activity entry with BMDM [1] is “Non-Toxic”. Moreover, the figures for the IC50 (with BMDM [2]; in series [3]) were greater than 10 µM and greater than 20 µM, respectively.
`CCC(C)C(=O)O[C@@H]1CC[C@]2(CO2)[C@]2(COC(C)=O)[C@@H](OC(C)=O)C[C@@H](C)[C@](C)(C[C@H](OC(C)=O)C3=CC(=O)OC3)[C@@H]12` (stereo not given in full): in the series on BMDM [1], the Activity result is reported as “Non-Toxic”.
Consider `C/C=C(\C)C(=O)O[C@@H]1CC[C@]2(CO2)[C@]2(COC(C)=O)[C@@H](OC(C)=O)C[C@@H](C)[C@](C)(C[C@H](OC(=O)C(C)CC)C3=CC(=O)OC3)[C@@H]12` (stereo not given in full), for which the Activity entry with BMDM [1] was “Non-Toxic”.
Same read-out and setting: next, `C/C=C(\C)C(=O)OC[C@@]12[C@@H](OC(C)=O)C[C@@H](C)[C@](C)(C[C@H](O)C3=CC(=O)OC3)[C@H]1CCC[C@]21CO1`: “Non-Toxic”.
Take `C/C=C(\C)C(=O)OC[C@@]12C(=O)C[C@@H](C)[C@](C)(CCC3=CC(=O)OC3)[C@H]1CCC[C@]2(O)CCl`: the Activity entry with BMDM [1] is “Toxic”.
